Measurements published in ChEMBL document CHEMBL1671638, “Cloning, expression, and characterization of Babesia gibsoni dihydrofolate reductase-thymidylate synthase: inhibitory effect of antifolates on its catalytic activity and parasite proliferation” (Antimicrob Agents Chemother, 2008).
Active and inactive are the calls of the source. The calls are words filed in the database; no cut-off is given here.

Columns and labels:
[1] = (§1) Inhibition of Babesia gibsoni Dihydrofolate reductase-thymidylate synthase expressed in Escherichia coli BL21
Babesia gibsoni [2] = assay: as §1
Babesia gibsoni [3] = assay: Antiparasitic activity against Babesia gibsoni infected in dog erythrocytes assessed as growth inhibition at 50 nM by Giemsa staining based microscopy; format: functional, organism-based
Babesia gibsoni [4] = assay: Antiparasitic activity against Babesia gibsoni infected in dog erythrocytes assessed as growth inhibition at 150 nM by Giemsa staining based microscopy; format: functional, organism-based
Babesia gibsoni [5] = assay: Antiparasitic activity against Babesia gibsoni infected in dog erythrocytes assessed as growth inhibition at 20 uM by Giemsa staining based microscopy; format: functional, organism-based
Babesia gibsoni [6] = assay: Antiparasitic activity against Babesia gibsoni infected in dog erythrocytes assessed as growth inhibition at 80 uM by Giemsa staining based microscopy; format: functional, organism-based

CN(Cc1cnc2nc(N)nc(N)c2n1)c1ccc(C(=O)N[C@@H](CCC(=O)O)C(=O)O)cc1 [METHOTREXATE]
IC50 [1]: 68.6 nM
inhibition (Babesia gibsoni [2]): Dose-dependent effect
inhibition (Babesia gibsoni [3]): Active
inhibition (Babesia gibsoni [4]): Active

CCc1nc(N)nc(N)c1-c1ccc(Cl)cc1 [PYRIMETHAMINE]
IC50 [1]: 50 nM
inhibition (Babesia gibsoni [2]): Dose-dependent effect
Activity (Babesia gibsoni [5]): Active
Activity (Babesia gibsoni [6]): Active

COc1cc(Cc2cnc(N)nc2N)cc(OC)c1OC [TRIMETHOPRIM]
IC50 [1]: 55 nM
inhibition (Babesia gibsoni [2]): Dose-dependent effect
Activity (Babesia gibsoni [5]): Active
Activity (Babesia gibsoni [6]): Active
